Measurements as given in patent US20090081197A1 (Palatin Technologies, Inc., priority 2007, published 2009).

Legend:
MC4-R [1] = biological target: T1, MC4-R (Homo sapiens, UniProt P32245); test: cAMP functional activity assay in HEK-293 cells, normal system; type: cell-based; set-up: expressed in transfected cells; host or cells: HEK-293; details: normal system; 1 μM concentration where stated
MC4-R [2] = biological target: T1, MC4-R; test: Assay for neutral antagonist, Schild analysis (pA2) against NDP-α-MSH; type: cell-based; set-up: expressed in transfected cells; host or cells: HEK-293; details: Schild analysis vs NDP-α-MSH; for Kb: read-out: pA2 value as antagonist at MC4-R in a normal system (converted)
Experimental: Assay for Neutral Antagonist. […] These studies were carried out in HEK-293 cells expressing the MC4-R receptor. Cells were incubated with the compounds in the presence of the agonist NDP-α-MSH and the extent of antagonism was measured by the decrease in the level of intracellular cAMP. Screening the compounds for antagonists was done at a single concentration of NDP-α-MSH (1.0 nM) over a compound concentration range of 0.5-5000 nM.
Experimental details were similar to the analysis for agonistic activity described above. Briefly, cells were pre-incubated for 30 minutes with the test compounds at concentrations between 0.5 nM and 5000 nM. The cells were then stimulated with NDP-α-MSH at a concentration of 1 nM for 1 hour. For Schild analysis, the interactions were studied using at least 3 concentrations of the compounds, separated by a log unit, over a full range of the agonist (0.005-5000 nM). cAMP levels was measured in the cell lysates after appropriate dilution. Nonlinear regression analysis with Prism Graph-Pad software was used for Schild analysis and to obtain EC50 values. pA2 values were derived from the Schild plot of the data.

MC4-R [3] = biological target: T1, MC4-R; test: Competitive inhibition assay using [I^125]-NDP-α-MSH, hMC4-R membranes; type: binding; set-up: host or cells: TREx-293 (HEK-293 stably expressing Tet repressor); details: 1 μM test compound; read-out: Inhibition at 1 μM (NDP-α-MSH) In Normal System, MC4-R
Procedure, shortened: (§1)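 Tracer was 0.4 nM for MC3-R and MC5-R, 0.2 nM for MC4-R and 0.1 nM for MC1-R. Bound radioactivity was gamma-counted after filtration; values are triplicate means, with results below 0% reported as 0%.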

MC1-R [4] = biological target: T2, MC1-R (Mus musculus, UniProt Q01727); test: Competitive inhibition assay using [I^125]-NDP-α-MSH, B-16 mouse melanoma cell membranes; type: binding; details: for inhibition at 1 µM: 1 μM test compound, read-out: Inhibition at 1 μM (NDP-α-MSH) In Normal System, MC1-R; for Ki: read-out: Ki (nM) (NDP-α-MSH) In Normal System, MC1-R
T2 construct: B-16 mouse melanoma cells (containing MC1-R); endogenous in cells
T2 sequence (Q01727 whole entry): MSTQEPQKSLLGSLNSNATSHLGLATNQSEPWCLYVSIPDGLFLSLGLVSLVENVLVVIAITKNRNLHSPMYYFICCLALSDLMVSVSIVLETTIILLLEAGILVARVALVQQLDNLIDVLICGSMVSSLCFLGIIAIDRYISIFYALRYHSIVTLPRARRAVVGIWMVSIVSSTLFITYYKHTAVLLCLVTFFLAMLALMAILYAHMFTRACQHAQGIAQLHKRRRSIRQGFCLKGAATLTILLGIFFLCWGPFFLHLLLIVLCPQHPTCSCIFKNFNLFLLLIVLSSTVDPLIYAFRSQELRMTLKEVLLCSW
Procedure, shortened: as §1

MC4-R [5] = biological target: T1, MC4-R; test: cAMP agonist stimulation, high receptor density system (10 ng/mL doxycycline); details: for Efficacy/Intrinsic Activity: 10 ng/mL doxycycline, high receptor density hMC4-R system, NDP-α-MSH maximal cAMP = 1.0
[6] = IP (and IN) food intake, mice; type: in vivo; details: mouse, IP, 10 mg/kg, 4 hours; read-out: maximal decrease in food intake
Procedure, shortened: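 Male Sprague-Dawley rats dosed IV (0.5-3, up to 10 mg/kg) or IP (0.5-10, up to 50 mg/kg); male C57BL/6 mice dosed IP. Change in food intake and body weight over 24 h post-dose versus 1-week vehicle baseline, with 48 and 72 h reversal checks.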

MC4-R [7] = biological target: T1, MC4-R; test: cAMP agonist stimulation, low receptor density system (0.1 ng/mL doxycycline); details: 0.1 ng/mL doxycycline, low receptor density hMC4-R system; NDP-α-MSH maximal cAMP = 1.0
MC3-R = MC3-R (Homo sapiens, UniProt P41968); test: Competitive inhibition assay using [I^125]-NDP-α-MSH, hMC3-R membranes; type: binding; set-up: expressed in transfected cells; details: 1 μM test compound; read-out: Inhibition at 1 μM (NDP-α-MSH) In Normal System, MC3-R
Chain of MC3-R (P41968 whole entry): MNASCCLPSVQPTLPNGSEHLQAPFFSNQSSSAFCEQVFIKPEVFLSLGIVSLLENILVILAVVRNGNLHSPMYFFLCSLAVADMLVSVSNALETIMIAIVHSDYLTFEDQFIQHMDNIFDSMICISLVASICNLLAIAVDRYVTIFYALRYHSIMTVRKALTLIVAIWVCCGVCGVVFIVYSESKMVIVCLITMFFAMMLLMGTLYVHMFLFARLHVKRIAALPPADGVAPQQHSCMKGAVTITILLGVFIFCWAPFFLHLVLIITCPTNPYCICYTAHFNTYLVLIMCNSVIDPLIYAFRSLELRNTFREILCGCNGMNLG
Procedure, shortened: as §1

MC5-R [8] = biological target: T3, MC5-R (Homo sapiens, UniProt P33032); test: cAMP functional activity assay in HEK-293 cells; type: cell-based; set-up: expressed in transfected cells; host or cells: HEK-293; details: 1 μM concentration where stated
T3 sequence (P33032 whole entry): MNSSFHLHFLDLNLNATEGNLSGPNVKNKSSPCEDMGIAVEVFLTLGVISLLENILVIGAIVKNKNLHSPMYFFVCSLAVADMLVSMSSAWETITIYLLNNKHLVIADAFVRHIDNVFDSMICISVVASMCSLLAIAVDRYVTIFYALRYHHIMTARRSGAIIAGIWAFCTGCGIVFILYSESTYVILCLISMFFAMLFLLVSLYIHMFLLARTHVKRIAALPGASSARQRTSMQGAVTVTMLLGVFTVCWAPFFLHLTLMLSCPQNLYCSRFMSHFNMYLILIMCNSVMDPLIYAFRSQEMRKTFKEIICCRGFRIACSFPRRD

MC1-R [9] = biological target: T2, MC1-R; test: cAMP functional activity assay in B-16 mouse melanoma cells; type: cell-based; details: 1 μM concentration where stated
MC5-R [10] = biological target: T3, MC5-R; test: Competitive inhibition assay using [I^125]-NDP-α-MSH, hMC5-R membranes; type: binding; set-up: expressed in transfected cells; details: 1 μM test compound; read-out: Inhibition at 1 μM (NDP-α-MSH) In Normal System, MC5-R
Procedure, shortened: as §1

[11] = Penile erection induction in male rats; type: in vivo; details: rat, IV
Procedure, shortened: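 Male Sprague-Dawley rats (200-250 g), groups of 4-8, dosed IV or ICV at various doses and observed individually for penile erections. Only statistically relevant increases over vehicle-control mean PEs count as induction; IV responses below 1.0 PEs/rat treated as equivocal, some retested ICV.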

[12] = ICV food intake and body weight change; type: in vivo; details: rat, 1 nmol, 24 hours
Procedure, shortened: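 Rats fitted with intracerebroventricular cannulas and fed ad libitum got a single ICV dose of vehicle or compound (1-3 nmol). Food intake and body-weight change over the 24 h after dosing were compared with a 1-week vehicle baseline. Values at 48 h and 72 h were also recorded to follow return to baseline.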

T1 sequence (P32245 whole entry): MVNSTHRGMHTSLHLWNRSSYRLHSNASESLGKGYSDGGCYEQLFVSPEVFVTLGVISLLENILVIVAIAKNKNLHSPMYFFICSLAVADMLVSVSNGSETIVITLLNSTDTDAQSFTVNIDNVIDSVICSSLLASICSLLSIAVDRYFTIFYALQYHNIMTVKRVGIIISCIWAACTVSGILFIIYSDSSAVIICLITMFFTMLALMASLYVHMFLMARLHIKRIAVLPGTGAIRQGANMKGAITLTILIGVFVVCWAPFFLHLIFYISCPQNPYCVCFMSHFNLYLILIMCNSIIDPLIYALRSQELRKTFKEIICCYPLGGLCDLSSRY

pA2 value as antagonist at MC4-R in a normal system (MC4-R [2])	Compound	functional status at MC4-R in cAMP assay (MC4-R [1])	inhibition at 1 µM (MC4-R [3]) [%]	inhibition at 1 µM (MC1-R [4]) [%]	Ki (MC1-R [4]) [nM]	Efficacy/Intrinsic Activity (MC4-R [5])	Kb (MC4-R [2]) [nM]	inhibition in vivo at 10 mg/kg [6] [%]	Efficacy/Intrinsic Activity (MC4-R [7])	inhibition at 1 µM (MC3-R) [%]	functional status at MC5-R in cAMP assay (MC5-R [8])	functional status at MC1-R in cAMP assay (MC1-R [9])	inhibition at 1 µM (MC5-R [10]) [%]	Penile Erection IV [11]	penile erection response [11]	EC50 (MC4-R [5]) [nM]	decrease in food intake [12] [%]
8.3	N-{3-[1-[2(R)-Amino-3-(2-methyl, 4-chloro-phenyl)-propionyl]-5(R)-methyl-4-(2-naphthalen-2-yl-ethyl)-piperazin-2(S)-yl]-propyl}-guanidine [Example 26]	no intrinsic activity (intrinsic activity below 0.1 (10%) is classified as inactive or having no intrinsic activity)	–	–	–	–	–	–	–	–	–	–	–	–	–	–	–
–	CC(C)C[C@@H]1CN(C(=O)[C@H](N)Cc2ccc(Cl)cc2Cl)[C@@H](CCCNC(=N)N)CN1CCc1ccc2ccccc2c1 [Example 4, N-{3-[1-[2(R)-Amino-3-(2,4-dichloro-phenyl)-propionyl]-5(R)-isobutyl-4-(2-naphthalen-2-yl-ethyl)-piperazin-2(S)-yl]-propyl}-guanidine]	no intrinsic activity (intrinsic activity below 0.1 (10%) is classified as inactive or having no intrinsic activity)	99	21	1360	None	20	60	None	64	partial agonist (intrinsic activity between 0.1 (10%) and 0.7 (70%) is classified as a partial agonist)	no intrinsic activity (intrinsic activity below 0.1 (10%) is classified as inactive or having no intrinsic activity)	75	–	–	–	–
–	N=C(N)NCCC[C@H]1C(=O)N2C(CC[C@@H]2COc2ccc3ccccc3c2)N1C(=O)[C@@H](Cc1ccc(Cl)cc1Cl)NC(=O)[C@@H]1Cc2ccccc2CN1 (stereo partly drawn) [Example 22, (S)-1,2,3,4-Tetrahydro-isoquinoline-3-carboxylic acid {(R)-1-(2,4-dichloro-benzyl)-2-[(2S,5R)-2-(3-guanidino-propyl)-5-(naphthalen-2-yloxymethyl)-3-oxo-hexahydro-pyrrolo[1,2-a]imidazol-1-yl]-2-oxo-ethyl}-amide]	antagonist	100	75	111	0.30	7.94	–	None	88	–	–	96	No	no penile erection response	64	22
